Experimental data taken from patent US8796460B2, “Compounds for inhibiting KSP kinesin activity” (Mercky Sharp & Dohme Corp., priority 2007, dated 2014).
Where two headings read alike, the source gives them in different places.

Test system: HCT116 colon cancer cells
Assay: KSP Cellular Assay (percent of cells staining positive for Phos-Histone H3 / Phos-MPM2)
Assay type: cell-based
Conditions: HCT116 cells, 16 hours with drug
In short: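 HCT116 cells treated with compound for 16 hours, fixed and stained with Hoechst plus Phos-Histone H3 (ser10) and Phos-MPM2 antibodies. Percent positive cells from immunofluorescence imaging; EC50 by sigmoidal nonlinear regression over 8-point dilutions in duplicate.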

[1] = Homo sapiens, HCT-116, 16 h, table of Example 1901, read-out: EC50 (nM) Range
[2] = Homo sapiens, HCT-116, 16 h, Table 401, read-out: ED50 (nM) Range

SMILES	EC50 [2] [nM]	other results
COCCOCC(=O)N1N=C(c2cc(F)ccc2F)S[C@@]12c1cc(F)cc(F)c1OC[C@H]2CCN [compound 1911]	–	EC50 [1]: ≤ 500 nM
NC1CCC(C(=O)N2N=C(c3cc(F)ccc3F)SC23CCc2ccccc23)CC1 (stereo not drawn) [compound 445]	–	EC50 (Table 401, read-out: ED50 (nM) Range): > 1000 nM
N[C@H]1CC[C@@H](C(=O)N2N=C(c3cc(F)ccc3F)SC23CCOc2ccccc23)C1 (stereo partly drawn) [compound 476]	> 500	–
O=C(C1CCNC1)N1N=C(c2cc(F)ccc2F)SC12CCCc1ccccc12 (stereo not drawn) [compound 412]	> 1000	–
CC(=O)N1N=C(c2cc(F)ccc2F)S[C@]12c1ccccc1NC[C@H]2CCN [compound 2801]	–	EC50 (Homo sapiens, HCT-116, 16 h, table of Example 2801, read-out: EC50 (nM) Range): ≤ 500 nM
CC(=O)N1N=C(c2cc(F)ccc2F)S[C@]12c1ccccc1NC[C@H]2CCN [compound 2701]	–	EC50 (Homo sapiens, HCT-116, 16 h, table of Example 2701, read-out: EC50 (nM) Range): ≤ 500 nM
CC(=O)N1N=C(c2ccc(F)cc2F)S[C@]12c1cc(F)ccc1OC[C@@H]2CCN [compound 1822]	–	EC50 (Homo sapiens, HCT-116, 16 h, table of Example 1801 (headed Table 1201), read-out: EC50 (nM) Range): > 1000 nM
COCCOCC(=O)N1N=C(c2cc(F)ccc2F)S[C@]12c1cc(F)cc(F)c1OC[C@@H]2CCN [compound 1912]	–	EC50 [1]: > 1000 nM
CCN1N=C(c2cc(F)ccc2F)SC12CCOc1ccccc12 (stereo not drawn) [compound 703]	–	EC50 (Homo sapiens, HCT-116, 16 h, Table 701, read-out: EC50 (nM) Range): > 1000 nM
NCCCC(=O)N1N=C(c2cc(F)ccc2F)SC12CCOc1ccccc12 (stereo not drawn) [compound 434]	≤ 500	–
O=C(CCC1CCCCN1)N1N=C(c2cc(F)ccc2F)SC12CCc1ccccc12 (stereo not drawn) [compound 461]	> 500	–
CNCCCC(=O)N1N=C(c2cc(F)ccc2F)SC12CCc1ccccc12 (stereo not drawn) [compound 453]	> 500	–
O=C(CC1CNC1)N1N=C(c2cc(F)ccc2F)SC12CCOc1ccccc12 (stereo not drawn) [compound 491]	500 to 1000	–
CC(C)(C)C(=O)N1N=C(c2cc(F)ccc2F)SC12CCOc1ccccc12 (stereo not drawn) [compound 430]	> 1000	–
NCCCCC(=O)N1N=C(c2cc(F)ccc2F)SC12CCc1ccccc12 (stereo not drawn) [compound 443]	≤ 500	–
